Data: PubChem BioAssay (NCI)
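Dose response: 5 concentrations. Exposure: 48 h. Format: 96-well plates. Endpoint: linear interpolation; highest concentration if not reached. TGI: concentration producing complete growth inhibition.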

Experiments:
Assay in all cases: NCI anticancer screen, dose series, 48 h
SK-MEL-2 melanoma = tested on: SK-MEL-2 melanoma
KM12 colon = tested on: KM12 colon
MDA-MB-231 breast = tested on: MDA-MB-231 breast
HOP-62 NSCLC = tested on: HOP-62 NSCLC
MOLT-4 leukemia = tested on: MOLT-4 leukemia
OVCAR-4 ovarian = tested on: OVCAR-4 ovarian
MDA-N = tested on: MDA-N
SF-268 CNS = tested on: SF-268 CNS
HT29 colon = tested on: HT29 colon
SK-OV-3 ovarian = tested on: SK-OV-3 ovarian
786-0 renal = tested on: 786-0 renal
IGROV1 ovarian = tested on: IGROV1 ovarian
SF-539 CNS = tested on: SF-539 CNS
ACHN renal = tested on: ACHN renal
SR leukemia = tested on: SR leukemia
BT-549 breast = tested on: BT-549 breast
HCT-15 colon = tested on: HCT-15 colon
SN12C renal = tested on: SN12C renal
NCI-H226 lung = tested on: NCI-H226 lung
RPMI-8226 leukemia = tested on: RPMI-8226 leukemia
M14 melanoma = tested on: M14 melanoma
UO-31 renal = tested on: UO-31 renal
HL-60(TB) leukemia = tested on: HL-60(TB) leukemia
HOP-92 NSCLC = tested on: HOP-92 NSCLC
HS 578T breast = tested on: HS 578T breast
CAKI-1 renal = tested on: CAKI-1 renal
OVCAR-8 ovarian = tested on: OVCAR-8 ovarian
SK-MEL-28 melanoma = tested on: SK-MEL-28 melanoma
U251 CNS = tested on: U251 CNS
SF-295 CNS = tested on: SF-295 CNS
A549 NSCLC = tested on: A549 NSCLC
HCT-116 colon = tested on: HCT-116 colon
OVCAR-5 ovarian = tested on: OVCAR-5 ovarian
T-47D breast = tested on: T-47D breast
A498 renal = tested on: A498 renal
MALME-3M melanoma = tested on: MALME-3M melanoma
EKVX NSCLC = tested on: EKVX NSCLC
NCI/ADR-RES ovarian = tested on: NCI/ADR-RES ovarian
SNB-19 CNS = tested on: SNB-19 CNS
MDA-MB-435 = tested on: MDA-MB-435
OVCAR-3 ovarian = tested on: OVCAR-3 ovarian
SW-620 colon = tested on: SW-620 colon
NCI-H23 lung = tested on: NCI-H23 lung
DU-145 prostate = tested on: DU-145 prostate
SK-MEL-5 melanoma = tested on: SK-MEL-5 melanoma
NCI-H522 lung = tested on: NCI-H522 lung
UACC-62 melanoma = tested on: UACC-62 melanoma
COLO 205 colon = tested on: COLO 205 colon
PC-3 prostate = tested on: PC-3 prostate
MCF7 breast = tested on: MCF7 breast
LOX IMVI melanoma = tested on: LOX IMVI melanoma
HCC-2998 colon = tested on: HCC-2998 colon
RXF 393 renal = tested on: RXF 393 renal
TK-10 renal = tested on: TK-10 renal
UACC-257 melanoma = tested on: UACC-257 melanoma
NCI-H460 lung = tested on: NCI-H460 lung
K-562 leukemia = tested on: K-562 leukemia
CCRF-CEM leukemia = tested on: CCRF-CEM leukemia
SNB-75 CNS = tested on: SNB-75 CNS

Measured: TGI

C=CCN1CCN([C@H](c2ccc(C(=O)N(CC)CC)cc2)c2cccc(OC)c2)CC1
not listed: LOX IMVI melanoma | HCC-2998 colon | RXF 393 renal | TK-10 renal | UACC-257 melanoma | NCI-H460 lung | K-562 leukemia | CCRF-CEM leukemia | SNB-75 CNS
> 25 µM: all other assays above

c1coc(C2=Nc3cccc4cccc(c34)N2)c1
28 µM: COLO 205 colon
80.8 µM: PC-3 prostate
44.4 µM: NCI/ADR-RES ovarian
23.2 µM: NCI-H522 lung
39.3 µM: SF-539 CNS
64.7 µM: UO-31 renal
57.6 µM: ACHN renal
40.8 µM: KM12 colon
56.3 µM: HCT-116 colon
60.5 µM: HOP-92 NSCLC
65.4 µM: HL-60(TB) leukemia | OVCAR-3 ovarian
84.9 µM: OVCAR-4 ovarian
76.9 µM: RXF 393 renal
57.3 µM: HT29 colon
23 µM: T-47D breast
not listed: OVCAR-5 ovarian | A498 renal
> 100 µM: all other assays above
